In patent US20100298141A1, “SUBSTITUTED PYRIDINE N-OXIDE HERBICIDES” (E. I. DU PONT DE NEMOURS AND COMPANY, priority 2007, published 2010):

Key:
barnyardgrass = test: Test A pre-/postemergence greenhouse test; format: in vivo, Echinochloa crus-galli; details: for Barnyardgrass plant response rating: 0 to 100 scale
Outline: (§1)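 Untreated controls served as the reference for visual injury ratings taken about ten days after spraying. The non-phytotoxic solvent/surfactant formulation was applied preemergence to seeded loam and sand and postemergence to plants two to ten cm high.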

redroot pigweed = test: Test A pre-/postemergence greenhouse test; format: in vivo, Amaranthus retroflexus; details: for Pigweed plant response rating: 0 to 100 scale
Outline: as §1

velvetleaf [1] = test: Test A pre-/postemergence greenhouse test; format: in vivo, Abutilon theophrasti; details: for Velvetleaf plant response rating: 0 to 100 scale
Outline: as §1

downy brome = test: Test C pre-/postemergence test; format: in vivo, Bromus tectorum; details: Postemergence; for Plant response rating, Bromegrass, Downy: scale 0 to 100, 0 no effect, 100 complete control
Outline: (§2)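 Seeds were planted and treated preemergence with test chemical in a non-phytotoxic solvent mixture containing surfactant. Postemergence applications of the same formulation went onto plants 2 to 18 cm tall (1- to 4-leaf stage). A dash marks no test result.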

green foxtail = test: Test C pre-/postemergence test; format: in vivo, Setaria viridis; details: Postemergence; for Plant response rating, Foxtail, Green: scale 0 to 100, 0 no effect, 100 complete control
Outline: as §2

wild oat = test: Test C pre-/postemergence test; format: in vivo, Avena fatua; details: Postemergence; for Plant response rating, Oat, Wild: scale 0 to 100, 0 no effect, 100 complete control
Outline: as §2

Surinam grass = test: Test C pre-/postemergence test; format: in vivo, Brachiaria decumbens; details: for Surinam Grass plant response rating: preemergence, scale 0 (no effect) to 100 (complete control); for Plant response rating, Surinam Grass: scale 0 to 100, 0 no effect, 100 complete control
Outline: as §2

cocklebur = test: Test C pre-/postemergence test; format: in vivo, Xanthium strumarium; details: for Plant response rating, Cocklebur: scale 0 to 100, 0 no effect, 100 complete control
Outline: as §2

crabgrass = test: Test C pre-/postemergence test; format: in vivo, Digitaria sanguinalis; details: for Plant response rating, Crabgrass, Large: scale 0 to 100, 0 no effect, 100 complete control
Outline: as §2

giant foxtail = test: Test C pre-/postemergence test; format: in vivo, Setaria faberii; details: for Plant response rating, Foxtail, Giant: scale 0 to 100, 0 no effect, 100 complete control
Outline: as §2

johnsongrass = test: Test C pre-/postemergence test; format: in vivo, Sorghum halepense; details: for Plant response rating, Johnsongrass: scale 0 to 100, 0 no effect, 100 complete control
Outline: as §2

kochia = test: Test C pre-/postemergence test; format: in vivo, Kochia scoparia; details: for Plant response rating, Kochia: scale 0 to 100, 0 no effect, 100 complete control
Outline: as §2

lambsquarters = test: Test C pre-/postemergence test; format: in vivo, Chenopodium album; details: for Plant response rating, Lambsquarters: scale 0 to 100, 0 no effect, 100 complete control
Outline: as §2

eastern black nightshade = test: Test C pre-/postemergence test; format: in vivo, Solanum ptycanthum
Outline: as §2

common ragweed = test: Test C pre-/postemergence test; format: in vivo, Ambrosia elation; details: for Plant response rating, Ragweed: scale 0 to 100, 0 no effect, 100 complete control
Outline: as §2

velvetleaf [2] = test: Test C pre-/postemergence test; format: in vivo, Abutilon theophrasti; details: for Plant response rating, Velvetleaf: scale 0 to 100, 0 no effect, 100 complete control
Outline: as §2

[3] = Postemergence, 125 g ai/ha, 0 is no effect, 100 is complete control
[4] = Postemergence, 500 g ai/ha, 0 is no effect, 100 is complete control
[5] = Preemergence, 125 g ai/ha, 0 no effect, 100 complete control
[6] = Preemergence, 500 g ai/ha, 0 to 100 scale where 0 is no effect and 100 is complete control
[7] = 31 g ai/ha, Preemergence, scale 0 to 100
[8] = 62 g ai/ha, preemergence, scale 0 (no effect) to 100 (complete control)
[9] = preemergence, 125 g ai/ha, scale 0 (no effect) to 100 (complete control)

SMILES: Cn1nc(C(F)(F)F)c(C[S+]([O-])c2ccc(Cl)c[n+]2[O-])c1OC(F)F (stereo not drawn) [Compound 6]
- Barnyardgrass plant response rating (barnyardgrass; [3]): 80
- Barnyardgrass plant response rating (barnyardgrass; [4]): 90
- Barnyardgrass plant response rating (barnyardgrass; [5]): 100
- Plant response rating, Barnyardgrass (barnyardgrass; [6]): 100
- Pigweed plant response rating (redroot pigweed; [3]): 100
- Pigweed plant response rating (redroot pigweed; [4]): 100
- Pigweed plant response rating (redroot pigweed; [5]): 100
- Plant response rating, Pigweed (redroot pigweed; [6]): 100
- Velvetleaf plant response rating (velvetleaf [1]; [3]): 50
- Velvetleaf plant response rating (velvetleaf [1]; [4]): 80
- Velvetleaf plant response rating (velvetleaf [1]; [5]): 90
- Plant response rating, Velvetleaf (velvetleaf [1]; [6]): 100
- Plant response rating (0 to 100), Bromegrass, Downy (downy brome; 31 g ai/ha): 0
- Plant response rating, Bromegrass, Downy (downy brome; 62 g ai/ha): 30
- Plant response rating, Bromegrass, Downy (downy brome; 125 g ai/ha): 50
- Plant response rating, Bromegrass, Downy (downy brome; 250 g ai/ha): 80
- Plant response rating (0 to 100), Foxtail, Green (green foxtail; 31 g ai/ha): 30
- Plant response rating, Foxtail, Green (green foxtail; 62 g ai/ha): 55
- Plant response rating, Foxtail, Green (green foxtail; 125 g ai/ha): 70
- Plant response rating, Foxtail, Green (green foxtail; 250 g ai/ha): 70
- Plant response rating (0 to 100), Oat, Wild (wild oat; 31 g ai/ha): 20
- Plant response rating, Oat, Wild (wild oat; 62 g ai/ha): 50
- Plant response rating, Oat, Wild (wild oat; 250 g ai/ha): 60
- Surinam Grass plant response rating (Surinam grass; 62 g ai/ha): 98
- Plant response rating (0 to 100), Surinam Grass (Surinam grass; Postemergence, 31 g ai/ha): 0
- Plant response rating (0 to 100), Surinam Grass (Surinam grass; Postemergence, 62 g ai/ha): 0
- Plant response rating, Surinam Grass (Surinam grass; Postemergence, 125 g ai/ha): 30
- Plant response rating, Surinam Grass (Surinam grass; Postemergence, 250 g ai/ha): 30
- Plant response rating (0 to 100), Surinam Grass (Surinam grass; Preemergence, 250 g ai/ha): 100
- Surinam Grass plant response rating (Surinam grass; 125 g ai/ha): 100
- Cocklebur plant response rating (cocklebur; [7]): 0
- Cocklebur plant response rating (cocklebur; [8]): 0
- Plant response rating (0 to 100), Cocklebur (cocklebur; Postemergence, 31 g ai/ha): 0
- Plant response rating, Cocklebur (cocklebur; Postemergence, 62 g ai/ha): 0
- Plant response rating, Cocklebur (cocklebur; Postemergence, 125 g ai/ha): 0
- Plant response rating, Cocklebur (cocklebur; Postemergence, 250 g ai/ha): 0
- Plant response rating (0 to 100), Cocklebur (cocklebur; Preemergence, 250 g ai/ha): 0
- Cocklebur plant response rating (cocklebur; [9]): 0
- Crabgrass, Large plant response rating (crabgrass; [7]): 98
- Crabgrass, Large plant response rating (crabgrass; [8]): 100
- Plant response rating (0 to 100), Crabgrass, Large (crabgrass; Postemergence, 31 g ai/ha): 5
- Plant response rating, Crabgrass, Large (crabgrass; Postemergence, 62 g ai/ha): 10
- Plant response rating, Crabgrass, Large (crabgrass; Postemergence, 125 g ai/ha): 40
- Plant response rating, Crabgrass, Large (crabgrass; Postemergence, 250 g ai/ha): 45
- Plant response rating (0 to 100), Crabgrass, Large (crabgrass; Preemergence, 250 g ai/ha): 100
- Crabgrass, Large plant response rating (crabgrass; [9]): 100
- Foxtail, Giant plant response rating (giant foxtail; [7]): 50
- Foxtail, Giant plant response rating (giant foxtail; [8]): 95
- Plant response rating (0 to 100), Foxtail, Giant (giant foxtail; Postemergence, 31 g ai/ha): 0
- Plant response rating, Foxtail, Giant (giant foxtail; Postemergence, 62 g ai/ha): 30
- Plant response rating, Foxtail, Giant (giant foxtail; Postemergence, 125 g ai/ha): 60
- Plant response rating, Foxtail, Giant (giant foxtail; Postemergence, 250 g ai/ha): 70
- Plant response rating (0 to 100), Foxtail, Giant (giant foxtail; Preemergence, 250 g ai/ha): 100
- Foxtail, Giant plant response rating (giant foxtail; [9]): 98
- Johnsongrass plant response rating (johnsongrass; [7]): 65
- Johnsongrass plant response rating (johnsongrass; [8]): 98
- Plant response rating (0 to 100), Johnsongrass (johnsongrass; Postemergence, 31 g ai/ha): 0
- Plant response rating, Johnsongrass (johnsongrass; Postemergence, 62 g ai/ha): 0
- Plant response rating, Johnsongrass (johnsongrass; Postemergence, 125 g ai/ha): 30
- Plant response rating, Johnsongrass (johnsongrass; Postemergence, 250 g ai/ha): 35
- Plant response rating (0 to 100), Johnsongrass (johnsongrass; Preemergence, 250 g ai/ha): 100
- Johnsongrass plant response rating (johnsongrass; [9]): 98
- Kochia plant response rating (kochia; [8]): 0
- Plant response rating (0 to 100), Kochia (kochia; Postemergence, 31 g ai/ha): 0
- Plant response rating, Kochia (kochia; Postemergence, 62 g ai/ha): 0
- Plant response rating, Kochia (kochia; Postemergence, 125 g ai/ha): 0
- Plant response rating, Kochia (kochia; Postemergence, 250 g ai/ha): 0
- Plant response rating (0 to 100), Kochia (kochia; Preemergence, 250 g ai/ha): 0
- Lambsquarters plant response rating (lambsquarters; [8]): 0
- Plant response rating (0 to 100), Lambsquarters (lambsquarters; Postemergence, 31 g ai/ha): 0
- Plant response rating, Lambsquarters (lambsquarters; Postemergence, 62 g ai/ha): 10
- Plant response rating, Lambsquarters (lambsquarters; Postemergence, 125 g ai/ha): 10
- Plant response rating, Lambsquarters (lambsquarters; Postemergence, 250 g ai/ha): 10
- Plant response rating (0 to 100), Lambsquarters (lambsquarters; Preemergence, 250 g ai/ha): 100
- Nightshade plant response rating (eastern black nightshade; [8]): 98
- Plant response rating (0 to 100), Nightshade (eastern black nightshade; Preemergence, 250 g ai/ha): 100
- Ragweed plant response rating (common ragweed; [7]): 0
- Ragweed plant response rating (common ragweed; [8]): 0
- Plant response rating (0 to 100), Ragweed (common ragweed; Postemergence, 31 g ai/ha): 0
- Plant response rating (0 to 100), Ragweed (common ragweed; Postemergence, 62 g ai/ha): 0
- Plant response rating, Ragweed (common ragweed; Postemergence, 125 g ai/ha): 10
- Plant response rating, Ragweed (common ragweed; Postemergence, 250 g ai/ha): 50
- Plant response rating (0 to 100), Ragweed (common ragweed; Preemergence, 250 g ai/ha): 40
- Ragweed plant response rating (common ragweed; [9]): 0
- Velvetleaf plant response rating (velvetleaf [2]; [8]): 0
- Plant response rating (0 to 100), Velvetleaf (velvetleaf [2]; Postemergence, 31 g ai/ha): 0
- Plant response rating (0 to 100), Velvetleaf (velvetleaf [2]; Postemergence, 62 g ai/ha): 10
- Plant response rating, Velvetleaf (velvetleaf [2]; Postemergence, 125 g ai/ha): 30
- Plant response rating, Velvetleaf (velvetleaf [2]; Postemergence, 250 g ai/ha): 50
- Plant response rating (0 to 100), Velvetleaf (velvetleaf [2]; Preemergence, 250 g ai/ha): 40
